Assay results taken from PubChem BioAssay AID330 (DTP/NCI, 2004).
“And” between values parts separate entries of the source, which are not always exact repeats. Identical values can stand only once. Inconclusive results and toxic doses are left out. How the source made its calls: active means survival T/C of 150% or more; inactive means T/C below 125% in these data.

Test system: P388 leukemia ip, CD2F1 mice, survival T/C
Test: NCI In Vivo Anticancer Drug Screen. Data for tumor model P388 Leukemia (intraperitoneal) in CD2F1 (CDF1) mice
Conditions: endpoint: median survival time, higher = longer survival
Method in brief: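 Mice carrying the transplanted tumor received test compound or vehicle. Survival was recorded in each group, and the value is the treated-group measurement divided by that of the vehicle-treated control group.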

Measured: T/C

S=c1nc[nH]c2nc[nH]c12
inactive: dose: 9.38 mg/kg/injection, schedule: Q01DX009 (ip), vehicle: alkali diluted with saline 111 % of control | dose: 18.8 mg/kg/injection, schedule: Q01DX009 (ip), vehicle: alkali diluted with saline 105 % of control | dose: 20.0 mg/kg/injection, schedule: Q01DX005 (ip), vehicle: alkali diluted with saline 110 % of control | dose: 20.0 mg/kg/injection, schedule: Q01DX005 (ip), vehicle: other 108 % of control and 92 % of control | dose: 20.0 mg/kg/injection, schedule: Q01DX009 (ip), vehicle: alkali diluted with saline 95 % of control | dose: 20.0 mg/kg/injection, schedule: Q01DX009 (ip), vehicle: alkali diluted with water 118 % of control | dose: 20.0 mg/kg/injection, schedule: Q04DX003 (ip), vehicle: other 110 % of control | dose: 20.0 mg/kg/injection, schedule: Q04DX003 (iv), vehicle: other 116 % of control | dose: 25.0 mg/kg/injection, schedule: Q01DX005 (ip), vehicle: alkali diluted with saline 105 % of control | dose: 25.0 mg/kg/injection, schedule: Q01DX005 (ip), vehicle: alkali diluted with water 100 % of control | dose: 25.0 mg/kg/injection, schedule: Q01DX009 (ip), vehicle: Klucel (hydroxypropylcellulose) (HPC) 115 % of control | dose: 28.13 mg/kg/injection, schedule: Q04DX003 (ip), vehicle: alkali diluted with saline 105 % of control | dose: 37.5 mg/kg/injection, schedule: Q01DX009 (ip), vehicle: alkali diluted with saline 110 % of control | dose: 37.5 mg/kg/injection, schedule: Q04DX003 (ip), vehicle: Klucel (hydroxypropylcellulose) (HPC) 121 % of control | dose: 40.0 mg/kg/injection, schedule: Q01DX001 (ip), vehicle: other 111 % of control | dose: 40.0 mg/kg/injection, schedule: Q01DX001 (iv), vehicle: other 100 % of control | dose: 40.0 mg/kg/injection, schedule: Q01DX005 (ip), vehicle: alkali diluted with saline 119 % of control | dose: 40.0 mg/kg/injection, schedule: Q01DX005 (ip), vehicle: other 107 % of control and 119 % of control | dose: 40.0 mg/kg/injection, schedule: Q01DX009 (ip), vehicle: alkali diluted with saline 101 % of control and 105 % of control and 97 % of control | dose: 40.0 mg/kg/injection, schedule: Q01DX009 (ip), vehicle: alkali diluted with water 86 % of control | dose: 40.0 mg/kg/injection, schedule: Q04DX003 (ip), vehicle: other 117 % of control | dose: 40.0 mg/kg/injection, schedule: Q04DX003 (iv), vehicle: other 99 % of control | dose: 50.0 mg/kg/injection, schedule: Q01DX005 (ip), vehicle: alkali diluted with saline 113 % of control | dose: 50.0 mg/kg/injection, schedule: Q01DX005 (ip), vehicle: alkali diluted with water 111 % of control | dose: 50.0 mg/kg/injection, schedule: Q01DX005 (ip), vehicle: saline 105 % of control | dose: 50.0 mg/kg/injection, schedule: Q01DX009 (ip), vehicle: Klucel (hydroxypropylcellulose) (HPC) 123 % of control | dose: 50.0 mg/kg/injection, schedule: Q01DX009 (ip), vehicle: alkali diluted with saline 99 % of control and 104 % of control | dose: 56.25 mg/kg/injection, schedule: Q04DX003 (ip), vehicle: alkali diluted with saline 99 % of control | dose: 60.0 mg/kg/injection, schedule: Q01DX009 (ip), vehicle: alkali diluted with saline 102 % of control and 113 % of control | dose: 75.0 mg/kg/injection, schedule: Q01DX009 (ip), vehicle: alkali diluted with saline 117 % of control | dose: 75.0 mg/kg/injection, schedule: Q04DX003 (ip), vehicle: Klucel (hydroxypropylcellulose) (HPC) 117 % of control | dose: 80.0 mg/kg/injection, schedule: Q01DX001 (iv), vehicle: other 103 % of control | dose: 80.0 mg/kg/injection, schedule: Q01DX005 (ip), vehicle: alkali diluted with saline 120 % of control | dose: 80.0 mg/kg/injection, schedule: Q01DX005 (ip), vehicle: other 95 % of control | dose: 80.0 mg/kg/injection, schedule: Q01DX009 (ip), vehicle: alkali diluted with saline 95 % of control | dose: 80.0 mg/kg/injection, schedule: Q04DX003 (iv), vehicle: other 104 % of control | dose: 100.0 mg/kg/injection, schedule: Q01DX005 (ip), vehicle: alkali diluted with saline 105 % of control | dose: 100.0 mg/kg/injection, schedule: Q01DX005 (ip), vehicle: alkali diluted with water 105 % of control | dose: 100.0 mg/kg/injection, schedule: Q01DX005 (ip), vehicle: saline 102 % of control and 108 % of control | dose: 112.5 mg/kg/injection, schedule: Q04DX003 (ip), vehicle: alkali diluted with saline 107 % of control | dose: 150.0 mg/kg/injection, schedule: Q01DX001 (ip), vehicle: alkali diluted with saline 101 % of control and 107 % of control | dose: 160.0 mg/kg/injection, schedule: Q01DX001 (iv), vehicle: other 103 % of control | dose: 160.0 mg/kg/injection, schedule: Q01DX005 (ip), vehicle: other 108 % of control and 112 % of control | dose: 160.0 mg/kg/injection, schedule: Q01DX009 (ip), vehicle: alkali diluted with saline 106 % of control | dose: 200.0 mg/kg/injection, schedule: Q01DX001 (ip), vehicle: alkali diluted with saline 108 % of control and 111 % of control | dose: 200.0 mg/kg/injection, schedule: Q01DX005 (ip), vehicle: alkali diluted with water 86 % of control | dose: 200.0 mg/kg/injection, schedule: Q01DX005 (ip), vehicle: saline 100 % of control and 115 % of control and 124 % of control | dose: 225.0 mg/kg/injection, schedule: Q04DX003 (ip), vehicle: alkali diluted with saline 98 % of control | dose: 250.0 mg/kg/injection, schedule: Q01DX001 (ip), vehicle: alkali diluted with saline 107 % of control | dose: 250.0 mg/kg/injection, schedule: Q01DX001 (ip), vehicle: saline 102 % of control | dose: 300.0 mg/kg/injection, schedule: Q01DX001 (ip), vehicle: alkali diluted with saline 112 % of control | dose: 320.0 mg/kg/injection, schedule: Q01DX001 (ip), vehicle: other 100 % of control | dose: 320.0 mg/kg/injection, schedule: Q01DX001 (iv), vehicle: other 108 % of control | dose: 320.0 mg/kg/injection, schedule: Q04DX003 (iv), vehicle: other 100 % of control | dose: 400.0 mg/kg/injection, schedule: Q01DX005 (ip), vehicle: saline 89 % of control | dose: 400.0 mg/kg/injection, schedule: Q01DX009 (ip), vehicle: Klucel (hydroxypropylcellulose) (HPC) 115 % of control | dose: 500.0 mg/kg/injection, schedule: Q01DX001 (ip), vehicle: saline 104 % of control | dose: 640.0 mg/kg/injection, schedule: Q01DX001 (iv), vehicle: other 105 % of control | dose: 1000.0 mg/kg/injection, schedule: Q01DX001 (ip), vehicle: saline 99 % of control

CC(C)CCCCc1c[nH]c(=O)[nH]c1=O
inactive: dose: 100.0 mg/kg/injection, schedule: Q01DX009 (ip), vehicle: saline with Tween-80 95 % of control | dose: 200.0 mg/kg/injection, schedule: Q01DX009 (ip), vehicle: saline with Tween-80 90 % of control | dose: 400.0 mg/kg/injection, schedule: Q01DX009 (ip), vehicle: saline with Tween-80 100 % of control

CC(C)(C)n1nc(C2CC2)c(Br)c1NC(=O)c1ccc(Cl)cc1
inactive: dose: 30.0 mg/kg/injection, schedule: Q01DX005 (ip), vehicle: Klucel (hydroxypropylcellulose) (HPC) 109 % of control | dose: 60.0 mg/kg/injection, schedule: Q01DX005 (ip), vehicle: Klucel (hydroxypropylcellulose) (HPC) 96 % of control | dose: 120.0 mg/kg/injection, schedule: Q01DX005 (ip), vehicle: Klucel (hydroxypropylcellulose) (HPC) 101 % of control | dose: 240.0 mg/kg/injection, schedule: Q01DX005 (ip), vehicle: Klucel (hydroxypropylcellulose) (HPC) 98 % of control

Cc1ccc(S(=O)(=O)N/N=C/c2c(Cl)[nH]c3cc(C)c(O)cc23)cc1
inactive: dose: 25.0 mg/kg/injection, schedule: Q01DX001 (ip), vehicle: Klucel (hydroxypropylcellulose) (HPC) 100 % of control | dose: 50.0 mg/kg/injection, schedule: Q01DX001 (ip), vehicle: Klucel (hydroxypropylcellulose) (HPC) 105 % of control | dose: 100.0 mg/kg/injection, schedule: Q01DX001 (ip), vehicle: Klucel (hydroxypropylcellulose) (HPC) 103 % of control and 91 % of control | dose: 200.0 mg/kg/injection, schedule: Q01DX001 (ip), vehicle: Klucel (hydroxypropylcellulose) (HPC) 103 % of control | dose: 400.0 mg/kg/injection, schedule: Q01DX001 (ip), vehicle: Klucel (hydroxypropylcellulose) (HPC) 91 % of control

COc1ccc(C(=O)CC(C(=O)O)c2ccc3c(c2)OCO3)cc1OC (configuration not stated)
inactive: dose: 100.0 mg/kg/injection, schedule: Q04DX003 (ip), vehicle: saline with Tween-80 100 % of control | dose: 200.0 mg/kg/injection, schedule: Q04DX003 (ip), vehicle: saline with Tween-80 90 % of control | dose: 400.0 mg/kg/injection, schedule: Q04DX003 (ip), vehicle: saline with Tween-80 90 % of control

Cc1ccc(/C=C(\NC(=O)c2ccc(C)cc2)C(=O)O)cc1
inactive: dose: 50.0 mg/kg/injection, schedule: Q01DX005 (ip), vehicle: Klucel (hydroxypropylcellulose) (HPC) 114 % of control | dose: 100.0 mg/kg/injection, schedule: Q01DX005 (ip), vehicle: Klucel (hydroxypropylcellulose) (HPC) 114 % of control | dose: 200.0 mg/kg/injection, schedule: Q01DX005 (ip), vehicle: Klucel (hydroxypropylcellulose) (HPC) 107 % of control
